Source: patent US5516803A, “Composition comprising a tramadol material and a non-steroidal anti-inflammatory drug” (priority 1995, dated 1996)

Columns and labels:
[1] = cited from earlier work; for opioid side effects: Goodman and Gilman's, 8th edition; for intensity of pain relieved / tolerance, addiction and toxicity: compared with opioid analgesics
[2] = tested on: acetylcholine-induced abdominal constriction; test: prevention of acetylcholine-induced abdominal constriction in mice (analgesic activity, oral); format: in vivo, male CD1 mice
Method: […]. The mice were all dosed orally with tramadol hydrochloride (calculated as the base), which was completely dissolved in distilled water, and ibuprofen (calculated as the base), which was completely dissolved in distilled water or in distilled water containing 2% by volume of Tween 80 containing 100% polysorbate 80. The dosing volume was 10 mL/kg.
The procedure used in detecting and comparing the analgesic activity of different classes of analgesic drugs for which there is a good correlation with human efficacy is the prevention of acetylcholine-induced abdominal constriction in mice (H. Collier et al., Br. J. Pharmacol., 32, 295 (1968)).
Mice, incubated with various doses of tramadol hydrochloride alone, ibuprofen alone, combined doses of tramadol hydrochloride and ibuprofen, or vehicle such as distilled water, or distilled water containing 2% by volume of Tween 80, were injected intraperitoneally with a challenge dose of acetylcholine bromide. […]. The mice were observed 10 minutes for the presence or absence of the abdominal constriction response beginning immediately after receiving the acetylcholine dose, which was 30 minutes after receiving the oral administration of tramadol hydrochloride,ibuprofen, combined doses of tramadol hydrochloride and ibuprofen, or vehicle. Each mouse was used only once.
The analysis of possible superadditivity for the compositions at each fixed ratio was determined as disclosed by R. J. Tallarida et al., Life Sci., 45, 947 (1989). This procedure involved the determination of the total amount in the mixture that is required to produce a specified level of effect, such as 50% (ED50mix), and the corresponding total amount that would be expected under simple additivity (ED50add). Where it was established that ED50mix <ED50add for a specific fixed-ratio, then that composition ratio was superadditive. Both the quantities ED50mix and ED50add were random variables; ED50mix was estimated from the dose-response curve for a specific fixed-ratio; ED50add was obtained by combining the ED50 estimates for the two drugs under additivity. ED50mix was then compared to ED50add via a Student's t-test. […]. The interaction between tramadol and ibuprofen was determined at precise dosage ratios of tramadol hydrochloride and ibuprofen. Multiple (typically 4-6) coded doses of each selected combination were studied for analgesic effectiveness after 30 minutes using an experimental design which permitted the complete randomization of the separate dosage forms tested.
In FIG. 1, the diagonal line joining the ED50 values of the two drugs given separately represents the simple additivity of effects at different component ratios. The dotted lines adjacent to the diagonal line define the 95% confidence interval. ED50 values falling under the curve (between the line and the origin) indicate superadditivity, i.e., unexpected enhancement of effects. The diagonal dashed lines radiating from the origin represent the dose ratios of ibuprofen to tramadol hydrochloride used in mice receiving the combined drug dosages. The bars through the ED50 points for the tramadol and ibuprofen composition represent the 95% confidence intervals of the ED50 value. […]

COc1ccc2c3c1O[C@H]1[C@@H](O)C=C[C@H]4[C@@H](C2)N(C)CC[C@@]341 [codeine]
opioid side effects [1]: respiratory depression, constipation, tolerance and abuse liability

CC(=O)Oc1ccccc1C(=O)O [aspirin]
intensity of pain relieved [1]: only useful in relieving pain of moderate intensity | tolerance, addiction and toxicity [1]: not subject to the tolerance, addiction and toxicity of the opioid analgesics

COc1cccc(C2(O)CCCCC2CN(C)C)c1 (single isomer, unassigned) [tramadol, (1R, 2R or 1S, 2S)-2-[(dimethylamino)methyl]-1-(3-methoxyphenyl)cyclohexanol]
ED50 value for drug alone ([2]; drug alone, oral, 30 min, range in parentheses 95% CI): 5.5(4.8-6.4) mg/kg | ED50 at 30 min (95% CI's), Tramadol ([2]; p.o., tramadol component (calculated as base), Table I): 5.5 mg/kg

COc1ccc2c3c1O[C@H]1C(=O)CC[C@H]4[C@@H](C2)N(C)CC[C@]314 [hydrocodone]
opioid side effects [1]: respiratory depression, constipation, tolerance and abuse liability

COc1ccc2c3c1O[C@H]1C(=O)CC[C@@]4(O)[C@@H](C2)N(C)CC[C@]314 [oxycodone]
opioid side effects [1]: respiratory depression, constipation, tolerance and abuse liability

CC(C)Cc1ccc(C(C)C(=O)O)cc1 (stereo not drawn) [ibuprofen, 2-(p-isobutylphenyl)propionic acid]
intensity of pain relieved [1]: only useful in relieving pain of moderate intensity | tolerance, addiction and toxicity [1]: not subject to the tolerance, addiction and toxicity of the opioid analgesics | ED50 ([2]; Mus musculus, 0.5 h, drug alone, oral, 30 min, range in parentheses 95% CI): 33.5 mg/kg | analgesia ([2]; tramadol 0, ibuprofen 10 mg/kg, p.o., 30 min): 2/15 | analgesia ([2]; tramadol 0, ibuprofen 20 mg/kg, p.o., 30 min): 4/15 | analgesia ([2]; tramadol 0, ibuprofen 40 mg/kg, p.o., 30 min): 8/15 | analgesia ([2]; tramadol 0, ibuprofen 80 mg/kg, p.o., 30 min): 13/15 | analgesia ([2]; tramadol 0, ibuprofen 160 mg/kg, p.o., 30 min): 14/15
